Measurements reported in patent US8519149B2, “Tricyclic compounds as mPGES-1 inhibitors” (Glenmark Pharmaceuticals S.A., priority 2010, dated 2013).
pIC50: −log10 of the molar value.

Target: T1, Recombinant human mPGES-1 (Homo sapiens, UniProt O14684)
T1 sequence (O14684 1-152): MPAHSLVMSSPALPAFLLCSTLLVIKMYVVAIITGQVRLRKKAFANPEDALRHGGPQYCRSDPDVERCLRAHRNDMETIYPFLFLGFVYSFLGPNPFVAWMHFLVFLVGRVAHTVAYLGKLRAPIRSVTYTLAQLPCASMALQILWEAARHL
Experiment: In-vitro mPGES-1 enzyme inhibition assay (PGE2 formation from PGH2, HTRF detection)
Assay type: biochemical
Settings: for inhibition at 1 µM: 1 μM test compound, read-out: Percentage inhibition at 1 μM; for inhibition at 1 µM / inhibition at 10 µM: recombinant human mPGES-1 microsomal fraction; for inhibition at 10 µM: 10 μM test compound, read-out: Percentage inhibition at 10 μM; for pIC50: class symbols, selected examples
How it was run: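 Crude microsomal fractions containing recombinant human mPGES-1 (40-60 μg/mL protein) convert PGH2 to PGE2 in the presence of reduced glutathione, with 0.5% final DMSO. Reaction stopped with stannous chloride, and PGE2 measured by anti-PGE2 antibody (HTRF) detection. IC50 by nonlinear regression of % inhibition versus uninhibited enzyme control.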

| inhibition at 1 µM [%] | inhibition at 10 µM [%] | pIC50 | SMILES |
| --- | --- | --- | --- |
| 98 | 100 | > 7.30 | Cc1cccc(Cl)c1Nc1nc2cc(C(=O)Nc3ncc(Cl)cc3F)c3c(c2[nH]1)CC(C)(C)O3 [Example-204, N-(5-Chloro-3-fluoropyridin-2-yl)-2-((2-chloro-6-methylphenyl)amino)-7,7-dimethyl-7,8-dihydro-1H-benzofuro[4,5-d]imidazole-5-carboxamide] |
| 97.7 | 98.4 | > 7.30 | CC(C)c1ccc(NC(=O)c2cc3nc(Nc4c(Cl)cccc4Cl)[nH]c3c3c2OC(C)(C)C3)cc1 [Example-90, 2-[(2,6-Dichlorophenyl)amino]-7,7-dimethyl-N-[4-(propan-2-yl)phenyl]-7,8-dihydro-1H-furo[3,2-e]benzimidazole-5-carboxamide] |
| 90.6 | 91.8 | > 7.30 | CC1(C)Cc2c(c(C(=O)Nc3nc4ccc(F)cc4s3)cc3nc(Nc4c(Cl)cccc4Cl)[nH]c23)O1 [Example-95, 2-[(2,6-Dichlorophenyl)amino]-N-(6-fluoro-1,3-benzothiazol-2-yl)-7,7-dimethyl-7,8-dihydro-1H-furo[3,2-e]benzimidazole-5-carboxamide] |
| 85.5 | 99.4 | < 7.00 | CC1(C)Cc2c(c(C(=O)NCc3ccccc3C(F)(F)F)cc3nc(Nc4ccccc4Cl)[nH]c23)O1 [Example-88, 2-[(2-Chlorophenyl)amino]-7,7-dimethyl-N-[2-(trifluoromethyl)benzyl]-7,8-dihydro-1H-furo[3,2-e]benzimidazole-5-carboxamide] |
| 43.9 | 60.2 | – | CC1(C)Cc2c(c(C(=O)Nc3ccc(C(F)(F)F)cc3)cc3nc(Nc4ccc(Cl)cc4Cl)[nH]c23)O1 [Example-91, 2-[(2,4-Dichlorophenyl)amino]-7,7-dimethyl-N-[4-(trifluoromethyl)phenyl]-7,8-dihydro-1H-furo[3,2-e]benzimidazole-5-carboxamide] |
| 59.5 | 60.4 | – | CC1(C)Cc2c(c(C(=O)Nc3cc(C(F)(F)F)ccc3F)cc3nc(NCc4ccccc4Cl)[nH]c23)O1 [Example-145, 2-((2-Chlorobenzyl)amino)-N-(2-fluoro-5-(trifluoromethyl)phenyl)-7,7-dimethyl-7,8-dihydro-1H-benzofuro[4,5-d]imidazole-5-carboxamide] |

The next lines start with the compound.

| SMILES | inhibition at 1 µM [%] | inhibition at 10 µM [%] | pIC50 |
| --- | --- | --- | --- |
| CC1(C)Cc2c(c(C(=O)Nc3ccc(F)cc3C#N)cc3nc(Nc4c(F)cccc4Cl)[nH]c23)O1 [Example-105, 2-[(2-Chloro-6-fluorophenyl)amino]-N-(2-cyano-4-fluorophenyl)-7,7-dimethyl-7,8-dihydro-1H-furo[3,2-e]benzimidazole-5-carboxamide] | 91.2 | 95.5 | < 7.00 |
| Cc1ccc(Nc2nc3cc(C(=O)Nc4ccc(C(F)(F)F)cc4)c4c(c3[nH]2)CC(C)(C)O4)c(Cl)c1 [Example-87, 2-[(2-Chloro-4-methylphenyl)amino]-7,7-dimethyl-N-[4-(trifluoromethyl)phenyl]-7,8-dihydro-1H-furo[3,2-e]benzimidazole-5-carboxamide] | 87.4 | 92.2 | > 7.30 |
| Cc1cc2c(o1)c(C(=O)Nc1ccc(F)cc1)cc1nc(Nc3c(Cl)cncc3Cl)[nH]c12 [Example-36, 2-[(3,5-Dichloropyridin-4-yl)amino]-N-(4-fluorophenyl)-7-methyl-1H-furo[3,2-e]benzimidazole-5-carboxamide] | 92.4 | 99.3 | < 7.00 |
| Cc1cccc(Cl)c1Nc1nc2cc(C(=O)Nc3ccc(F)c(C(F)(F)F)c3)c3c(c2[nH]1)CC(C)(C)O3 [Example-133, 2-((2-Chloro-6-methylphenyl)amino)-N-(4-fluoro-3-(trifluoromethyl)phenyl)-7,7-dimethyl-7,8-dihydro-1H-benzofuro[4,5-d]imidazole-5-carboxamide] | 91.4 | 96.5 | > 7.30 |
| Cc1cccc(Cl)c1Nc1nc2cc(C(=O)Nc3ccc(F)c(F)c3F)c3c(c2[nH]1)CC(C)(C)O3 [Example-202, 2-((2-Chloro-6-methylphenyl)amino)-7,7-dimethyl-N-(2,3,4-trifluorophenyl)-7,8-dihydro-1H-benzofuro[4,5-d]imidazole-5-carboxamide] | 95.1 | 100 | > 7.30 |
| CC1(C)Cc2c(c(C(=O)NCC3CC3)cc3nc(Nc4c(Cl)cncc4Cl)[nH]c23)O1 [Example-21, N-(Cyclopropylmethyl)-2-[(3,5-dichloropyridin-4-yl)amino]-7,7-dimethyl-7,8-dihydro-1H-furo[3,2-e]benzimidazole-5-carboxamide] | 96.8 | 99.8 | – |
| Cc1cccc(Cl)c1Nc1nc2cc(C(=O)Nc3ccc(C(F)(F)F)c[n+]3[O-])c3c(c2[nH]1)CC(C)(C)O3 [Example-163, 2-(2-((2-Chloro-6-methylphenyl)amino)-7,7-dimethyl-7,8-dihydro-1H-benzofuro[4,5-d]imidazole-5-carboxamido)-5-(trifluoromethyl)pyridine 1-oxide] | 62.8 | 96.9 | – |
| CC(C)(C)c1ccc(NC(=O)c2cc3nc(Nc4c(Cl)cccc4Cl)[nH]c3c3nc(C4CC4)oc23)cc1 [Example-184, N-(4-tert-Butylphenyl)-2-cyclopropyl-7-[(2,6-dichlorophenyl)amino]-8H-imidazo[4,5-e][1,3]benzoxazole-4-carboxamide] | 96.9 | 95.9 | > 7.30 |
| CC1(C)Cc2c(c(C(=O)Nc3ccc(Cl)cn3)cc3nc(Nc4c(F)cccc4Cl)[nH]c23)O1 [Example-121, 2-[(2-Chloro-6-fluorophenyl)amino]-N-(5-chloropyridin-2-yl)-7,7-dimethyl-7,8-dihydro-1H-furo[3,2-e]benzimidazole-5-carboxamide] | 100 | 100 | – |
| CC(C)c1noc(-c2cc3nc(Nc4c(F)cccc4Cl)[nH]c3c3c2OC(C)(C)C3)n1 [Example-156, N-(2-Chloro-6-fluorophenyl)-5-(3-isopropyl-1,2,4-oxadiazol-5-yl)-7,7-dimethyl-7,8-dihydro-1H-benzofuro[4,5-d]imidazol-2-amine] | 33.1 | 92.2 | – |
| CCCCCCNC(=O)c1cc2nc(Nc3c(Cl)cccc3Cl)[nH]c2c2nc(C)oc12 [Example-181, 7-[(2,6-Dichlorophenyl)amino]-N-hexyl-2-methyl-8H-imidazo[4,5-e][1,3]benzoxazole-4-carboxamide] | 89.5 | 93.9 | > 7.30 |
| CCCCCCNC(=O)c1cc2nc(Nc3c(Cl)cncc3Cl)[nH]c2c2c1OC(C)(C)C2 [Example-3, 2-[(3,5-Dichloropyridin-4-yl)amino]-N-hexyl-7,7-dimethyl-7,8-dihydro-1H-furo[3,2-e]benzimidazole-5-carboxamide] | 99.1 | 99.5 | > 7.30 |
